Source: patent US8067613B2 (Abbott Laboratories, priority 2007, dated 2011)

Each compound was assayed against T1, Recombinant Human Poly(ADP-Ribose)Polymerase (PARP), PARP-1 (Homo sapiens, UniProt P09874) (assay: PARP1 assay (SPA/FlashPlate, [3H]-NAD+ incorporation into biotinylated histone H1)). Details: 1 nM PARP enzyme, 1.5 μM [3H]-NAD+, 200 nM biotinylated histone H1, 200 nM slDNA; Ki from inhibition curves at various substrate concentrations.
T1 construct: purchased Trevigen (Gaithersburg, Md.); host or cells: E. coli
Assay type: biochemical
Description: Nicotinamide[2,5′,8-3H]adenine dinucleotide and strepavidin SPA beads were obtained from Amersham Biosiences (UK). Recombinant Human Poly(ADP-Ribose)Polymerase (PARP), purified from E. coli and 6-Biotin-17-NAD^+, were obtained from Trevigen (Gaithersburg, Md.). NAD^+, histone, aminobenzamide, 3-aminobenzamide and Calf Thymus DNA (dcDNA) were obtained from Sigma (St. Louis, Mo.). Stem loop oligonucleotide containing MCAT sequence was obtained from Qiagen. The oligos were dissolved to 1 mM in annealing buffer containing 10 mM Tris HCl (pH 7.5), 1 mM EDTA, and 50 mM NaCl, incubated for 5 minutes at 95° C. and annealed at 45° C. for 45 minutes. Histone H1 (95% electrophoretically pure) was obtained from Roche (Indianapolis, Ind. Biotinylated histone H1 was prepared by treating the protein with Sulfo-NHS-LC-Biotin (Pierce Rockford, Ill.). The biotinylation reaction was conducted by slowly and intermittently adding 3 equivalents of 10 mM Sulfo-NHS-LC-Biotin to 100 μM Histone H1 in phosphate-buffered saline, pH 7.5, at 4° C. with gentle vortexing over 1 minute then incubation at 4° C. for 1 hour. Streptavidin coated (FlashPlate Plus) microplates were obtained from Perkin Elmer (Boston, Mass.).
PARP1 assay was conducted in PARP assay buffer containing 50 mM tris (pH 8.0), 1 mM DTT and 4 mM MgCl2. PARP reactions contained 1.5 μM [^3H]-NAD^+ (1.6 μCi/mmol), 200 nM biotinylated histone H1, 200 nM slDNA, and 1 nM PARP enzyme. Auto reactions utilizing SPA bead-based detection were carried out in 100 μL volumes in white 96 well plates.
Reactions were initiated by adding 50 μL of 2×NAD^+ substrate mixture to 50 μL of 2× enzyme mixture containing PARP and DNA. These reactions were terminated by the addition of 150 μL of 1.5 mM benzamide (1000-fold over its IC50). 170 μL of the stopped reaction mixtures were transferred to streptavidin Flash Plates, incubated for 1 hour and counted using a TopCount microplate scintillation counter. The Ki data (in nM) for representative compounds of this invention were determined from inhibition curves at various substrate concentrations and are shown in TABLE 1.

T1 sequence (P09874 whole entry): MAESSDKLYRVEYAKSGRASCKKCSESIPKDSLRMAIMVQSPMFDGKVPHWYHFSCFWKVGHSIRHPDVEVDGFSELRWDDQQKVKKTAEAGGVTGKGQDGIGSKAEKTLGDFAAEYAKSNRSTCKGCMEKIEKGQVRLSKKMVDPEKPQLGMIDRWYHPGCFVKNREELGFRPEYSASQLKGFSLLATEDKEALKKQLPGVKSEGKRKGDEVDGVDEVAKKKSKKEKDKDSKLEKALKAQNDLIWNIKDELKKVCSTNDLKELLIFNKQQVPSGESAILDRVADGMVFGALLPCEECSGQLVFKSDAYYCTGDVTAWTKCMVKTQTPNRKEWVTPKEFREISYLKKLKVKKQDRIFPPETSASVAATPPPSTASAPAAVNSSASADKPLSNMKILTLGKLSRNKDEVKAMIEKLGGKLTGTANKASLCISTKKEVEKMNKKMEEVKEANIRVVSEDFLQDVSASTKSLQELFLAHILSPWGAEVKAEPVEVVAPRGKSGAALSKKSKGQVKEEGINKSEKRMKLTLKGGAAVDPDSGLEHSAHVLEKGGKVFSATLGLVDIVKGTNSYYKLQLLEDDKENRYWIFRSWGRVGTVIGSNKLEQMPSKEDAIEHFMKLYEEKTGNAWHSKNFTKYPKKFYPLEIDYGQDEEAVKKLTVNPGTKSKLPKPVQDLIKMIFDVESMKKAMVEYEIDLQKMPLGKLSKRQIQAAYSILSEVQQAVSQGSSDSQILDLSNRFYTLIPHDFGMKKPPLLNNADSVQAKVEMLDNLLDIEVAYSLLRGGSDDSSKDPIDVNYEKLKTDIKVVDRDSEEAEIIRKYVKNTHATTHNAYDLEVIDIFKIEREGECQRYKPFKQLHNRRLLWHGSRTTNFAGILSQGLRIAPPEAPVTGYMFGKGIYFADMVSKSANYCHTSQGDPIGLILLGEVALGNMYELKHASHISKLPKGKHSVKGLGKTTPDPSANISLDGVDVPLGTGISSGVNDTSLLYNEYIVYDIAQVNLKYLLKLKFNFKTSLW

Row | Structure (SMILES) | Ki
1 | NC(=O)c1cccc2[nH]c(-c3ccc(C4CCCN4C4CCOCC4)nc3)nc12 (stereo not drawn) [Example 49, 2-[6-(1-tetrahydro-2H-pyran-4-ylpyrrolidin-2-yl),pyridin-3-yl]-1H-benzimidazole-4-carboxamide] | 17 nM
2 | NC(=O)c1cccc2[nH]c(-c3ccc(-c4ncccn4)s3)nc12 [Example 12, 2-(5-pyrimidin-2-ylthien-2-yl)-1H-benzimidazole-4-carboxamide] | 9 nM
3 | NC(=O)c1cccc2[nH]c(-c3ccc(-c4nnc(C(F)(F)F)o4)cn3)nc12 [Example 52, 2-{5-[5-(trifluoromethyl)-1,3,4-oxadiazol-2-yl]pyridin-2-yl}-1H-benzimidazole-4-carboxamide] | 14 nM
4 | NC(=O)c1cccc2[nH]c(-c3ccc([C@H]4CCCN4Cc4ccncc4)s3)nc12 [Example 26, 2-(5-((2R)-1-(pyridin-4-ylmethyl)pyrrolidin-2-yl)thien-2-yl)-1H-benzimidazole-4-carboxamide] | 6 nM
5 | NC(=O)c1cccc2[nH]c(-c3csc(C4CCNCC4)n3)nc12 [Example 5, 2-(2-piperidin-4-yl-1,3-thiazol-4-yl)-1H-benzimidazole-4-carboxamide] | 32 nM
6 | NC(=O)c1cccc2[nH]c(-c3ccc(C4CCCN4C4CCCCC4)s3)nc12 (stereo not drawn) [Example 42, 2-(5-(1-cyclohexylpyrrolidin-2-yl)thien-2-yl)-1H-benzimidazole-4-carboxamide] | 12 nM
7 | CCCN1CCC(c2nc(-c3nc4c(C(N)=O)cccc4[nH]3)cs2)CC1 [Example 8, 2-(2-(1-propylpiperidin-4-yl)-1,3-thiazol-4-yl)-1H-benzimidazole-4-carboxamide] | 50 nM
8 | NC(=O)c1cccc2[nH]c(-c3ccc(C4CCCN4C4CCCC4)s3)nc12 (stereo not drawn) [Example 41, 2-(5-(1-cyclopentylpyrrolidin-2-yl)thien-2-yl)-1H-benzimidazole-4-carboxamide] | 5 nM
9 | CC(C)N1CCC(c2nc(-c3nc4c(C(N)=O)cccc4[nH]3)cs2)CC1 [Example 7, 2-(2-(1-isopropylpiperidin-4-yl)-1,3-thiazol-4-yl)-1H-benzimidazole-4-carboxamide] | 61 nM
10 | NC(=O)c1cccc2[nH]c(-c3csc(-c4cccs4)n3)nc12 [Example 4, 2-(2-thien-2-yl-1,3-thiazol-4-yl)-1H-benzimidazole-4-carboxamide] | 20.9 nM

Continued, values first:

Row | Ki | Structure (SMILES)
11 | 8 nM | CC(C)CN1CCC[C@@H]1c1ccc(-c2nc3c(C(N)=O)cccc3[nH]2)s1 [Example 27, 2-(5-((2R)-1-isobutylpyrrolidin-2-yl)thien-2-yl)-1H-benzimidazole-4-carboxamide]
12 | 5 nM | NC(=O)c1cccc2[nH]c(-c3ccc([C@H]4CCCN4CC4CC4)s3)nc12 [Example 20, 2-(5-((2R)-1-(cyclopropylmethyl)pyrrolidin-2-yl)thien-2-yl)-1H-benzimidazole-4-carboxamide]
13 | 11 nM | CC(C)CN1CCCC1c1ccc(-c2nc3c(C(N)=O)cccc3[nH]2)s1 (stereo not drawn) [Example 39, 2-(5-(1-isobutylpyrrolidin-2-yl)thien-2-yl)-1H-benzimidazole-4-carboxamide]
14 | 7 nM | NC(=O)c1cccc2[nH]c(-c3ccc(C4CCCN4)s3)nc12 (stereo not drawn) [Example 34, 2-(5-pyrrolidin-2-ylthien-2-yl)-1H-benzimidazole-4-carboxamide]
15 | 7 nM | NC(=O)c1cccc2[nH]c(-c3ccc(C4CCCCN4)s3)nc12 (stereo not drawn) [Example 28, 2-(5-piperidin-2-ylthien-2-yl)-1H-benzimidazole-4-carboxamide]
